Like-named read-outs stand apart in the source and are kept apart here.
Legend:
[1] = target: T1, SARS-CoV-2 helicase (nsp13) (Severe acute respiratory syndrome coronavirus 2, UniProt P0DTD1); conditions: read-out: IC50 for unwinding activity
[2] = target: T1, SARS-CoV-2 helicase (nsp13)
[3] = target: SARS-CoV-2 nsp13 (Severe acute respiratory syndrome coronavirus 2, UniProt P0DTD1); type: binding
[4] = 100 nM nsp13, compound at 1 μM, 10 nM probe

Row | Compound | fluorescence intensity of BODIPY FL ATP-γ-S with nsp13 [3] | fluorescence intensity of BODIPY FL ATP-γ-S with nsp13 [3, 4] | also measured
1 | Nc1ccc([O-])c(=O)cc1.Nc1ccc([O-])c(=O)cc1.Nc1ccc([O-])c(=O)cc1.[Bi+3] [Bi(Tro-NH2)3, Bi(5-aminotropolonate)3] |  |  | IC50 [1]: 360 ± 20 nM; fold lower ATPase IC50 than that of Bi(NAC)3 [2]: over 30 fold; IC50 ([2]; read-out: IC50 for ATPase): 30 nM
2 | colloidal bismuth subcitrate [CBS] | decreased fluorescence intensities |  | 
3 | N[C@@H](CCC(=O)N[C@@H](CS)C(=O)NCC(=O)O)C(=O)O [GSH, glutathione] | did not observe any apparent decrease in the fluorescence intensity |  | 
4 | Nc1nc2nc[nH]c2c(=S)[nH]1 [6-TG, 6-thioguanine] |  | did not observe any apparent decrease in the fluorescence intensity | 
5 | CC(C)c1cccc(=O)c(O)c1 [Hino, hinokitiol] |  | did not observe any apparent decrease in the fluorescence intensity | 
6 | CC(=O)N[C@@H](CS)C(=O)O [NAC, N-acetyl cysteine] |  | did not observe any apparent decrease in the fluorescence intensity | 

Source: publication PMC11220592 (Chemical Science, 2024)
